Organism: Rattus norvegicus
Assay: DrugMatrix - Regimen: Daily Repeat
Format: toxicity, organism-based, Sprague-Dawley
Set-up: regimen Daily Repeat, gender Male, age 6-8 weeks
Conditions: in vivo, iv, vehicle 100 % SALINE; for ABSOLUTE BASOPHIL / ABSOLUTE EOSINOPHIL / ABSOLUTE LYMPHOCYTE / ABSOLUTE MONOCYTE / ABSOLUTE SEGMENTED NEUTROPHIL / BASOPHIL / EOSINOPHIL / ERYTHROCYTE COUNT / HEMATOCRIT / HEMOGLOBIN / LEUKOCYTE COUNT / LYMPHOCYTE / MEAN CORPUSCULAR HEMOGLOBIN / MEAN CORPUSCULAR HEMOGLOBIN CONCENTRATION / MEAN CORPUSCULAR VOLUME / MONOCYTE / NEUTROPHIL / NUCLEATED RED BLOOD CELLS / PLATELET COUNT: tissue Blood; for ALANINE AMINOTRANSFERASE / ALBUMIN / ALKALINE PHOSPHATASE / ASPARTATE AMINOTRANSFERASE / BLOOD UREA NITROGEN / CARBON DIOXIDE / CHLORIDE / CHOLESTEROL / CREATINE PHOSPHOKINASE / CREATININE / GLUCOSE / LACTATE DEHYDROGENASE / LIPASE / PHOSPHORUS / POTASSIUM / SODIUM / TOTAL BILIRUBIN / TOTAL PROTEIN / URIC ACID: tissue Plasma
[1] = 23 mg/kg, 120 h, dose level High, time 5 day
[2] = […], 72 h, dose 2.3 mg/Kg, dose level Low, time 3 day
[3] = […], 120 h, dose 2.3 mg/Kg, dose level Low, time 5 day

## COC(=O)C[C@](O)(CCC(C)(C)O)C(=O)O[C@@H]1C(OC)=C[C@]23CCCN2CCc2cc4c(cc2[C@H]13)OCO4 [HARRINGTONINE]
[1]
  ABSOLUTE BASOPHIL: 0 CELLS/uL
  ABSOLUTE EOSINOPHIL: 0 CELLS/uL
  ABSOLUTE LYMPHOCYTE: 5612 CELLS/uL
  ABSOLUTE MONOCYTE: 134.67 CELLS/uL
  ABSOLUTE SEGMENTED NEUTROPHIL: 53.33 CELLS/uL
  BASOPHIL: 0%
  EOSINOPHIL: 0%
  ERYTHROCYTE COUNT: 5.85 x10E6/uL
  HEMATOCRIT: 36.17%
  HEMOGLOBIN: 13.93 G/DL
  LEUKOCYTE COUNT: 5.8 x10E3/uL
  LYMPHOCYTE: 96.67%
  MEAN CORPUSCULAR HEMOGLOBIN: 23.83 pg
  MEAN CORPUSCULAR HEMOGLOBIN CONCENTRATION: 38.53 G/DL
  MEAN CORPUSCULAR VOLUME: 61.87 fL
  MONOCYTE: 2.33%
  NEUTROPHIL: 1%
  NUCLEATED RED BLOOD CELLS: 0 /100WBC
  PLATELET COUNT: 414 x10E3/uL
  ALANINE AMINOTRANSFERASE: 83 u/L
  ALBUMIN: 3.47 G/DL
  ALKALINE PHOSPHATASE: 214 u/L
  ASPARTATE AMINOTRANSFERASE: 226.33 u/L
  BLOOD UREA NITROGEN: 15.67 mg/dL
  CARBON DIOXIDE: 24 mmol/L
  CHLORIDE: 100.33 MEQ/L
  CHOLESTEROL: 71 mg/dL
  CREATINE PHOSPHOKINASE: 222 u/L
  CREATININE: 0.27 mg/dL
  GLUCOSE: 151.67 mg/dL
  LACTATE DEHYDROGENASE: 292.33 u/L
  LIPASE: 7.33 u/L
  PHOSPHORUS: 9.13 mg/dL
  POTASSIUM: 6.23 MEQ/L
  SODIUM: 143.4 MEQ/L
  TOTAL BILIRUBIN: 0.23 mg/dL
  TOTAL PROTEIN: 5.73 G/DL
  URIC ACID: 1.2 mg/dL
[2]
  ABSOLUTE BASOPHIL: 0 CELLS/uL
  ABSOLUTE EOSINOPHIL: 41.67 CELLS/uL
  ABSOLUTE LYMPHOCYTE: 11224.33 CELLS/uL
  ABSOLUTE MONOCYTE: 81.33 CELLS/uL
  ABSOLUTE SEGMENTED NEUTROPHIL: 586 CELLS/uL
  BASOPHIL: 0%
  EOSINOPHIL: 0.33%
  ERYTHROCYTE COUNT: 5.44 x10E6/uL
  HEMATOCRIT: 34.9%
  HEMOGLOBIN: 13.83 G/DL
  LEUKOCYTE COUNT: 11.93 x10E3/uL
  LYMPHOCYTE: 94%
  MEAN CORPUSCULAR HEMOGLOBIN: 25.47 pg
  MEAN CORPUSCULAR HEMOGLOBIN CONCENTRATION: 39.63 G/DL
  MEAN CORPUSCULAR VOLUME: 64.17 fL
  MONOCYTE: 0.67%
  NEUTROPHIL: 5%
  NUCLEATED RED BLOOD CELLS: 0 /100WBC
  PLATELET COUNT: 1133.33 x10E3/uL
  ALANINE AMINOTRANSFERASE: 48.67 u/L
  ALBUMIN: 4.13 G/DL
  ALKALINE PHOSPHATASE: 303.67 u/L
  ASPARTATE AMINOTRANSFERASE: 64.33 u/L
  BLOOD UREA NITROGEN: 15.67 mg/dL
  CARBON DIOXIDE: 31.67 mmol/L
  CHLORIDE: 101 MEQ/L
  CHOLESTEROL: 51 mg/dL
  CREATINE PHOSPHOKINASE: 184 u/L
  CREATININE: 0.17 mg/dL
  GLUCOSE: 163 mg/dL
  LACTATE DEHYDROGENASE: 69 u/L
  LIPASE: 8.67 u/L
  PHOSPHORUS: 12.37 mg/dL
  POTASSIUM: 6.49 MEQ/L
  SODIUM: 146.83 MEQ/L
  TOTAL BILIRUBIN: 0.2 mg/dL
  TOTAL PROTEIN: 5.5 G/DL
  URIC ACID: 2 mg/dL
[3]
  ABSOLUTE BASOPHIL: 0 CELLS/uL
  ABSOLUTE EOSINOPHIL: 0 CELLS/uL
  ABSOLUTE LYMPHOCYTE: 10385.33 CELLS/uL
  ABSOLUTE MONOCYTE: 95.33 CELLS/uL
  ABSOLUTE SEGMENTED NEUTROPHIL: 1152.67 CELLS/uL
  BASOPHIL: 0%
  EOSINOPHIL: 0%
  ERYTHROCYTE COUNT: 5.81 x10E6/uL
  HEMATOCRIT: 35.2%
  HEMOGLOBIN: 13.83 G/DL
  LEUKOCYTE COUNT: 11.63 x10E3/uL
  LYMPHOCYTE: 90.67%
  MEAN CORPUSCULAR HEMOGLOBIN: 23.83 pg
  MEAN CORPUSCULAR HEMOGLOBIN CONCENTRATION: 39.3 G/DL
  MEAN CORPUSCULAR VOLUME: 60.6 fL
  MONOCYTE: 0.67%
  NEUTROPHIL: 8.67%
  NUCLEATED RED BLOOD CELLS: 0.33 /100WBC
  PLATELET COUNT: 1139 x10E3/uL
  ALANINE AMINOTRANSFERASE: 52 u/L
  ALBUMIN: 4.03 G/DL
  ALKALINE PHOSPHATASE: 408.33 u/L
  ASPARTATE AMINOTRANSFERASE: 89.67 u/L
  BLOOD UREA NITROGEN: 18.67 mg/dL
  CARBON DIOXIDE: 25 mmol/L
  CHLORIDE: 102 MEQ/L
  CHOLESTEROL: 60 mg/dL
  CREATINE PHOSPHOKINASE: 576 u/L
  CREATININE: 0.16 mg/dL
  GLUCOSE: 170.33 mg/dL
  LACTATE DEHYDROGENASE: 158.67 u/L
  LIPASE: 8.67 u/L
  PHOSPHORUS: 12.3 mg/dL
  POTASSIUM: 6.27 MEQ/L
  SODIUM: 145.13 MEQ/L
  TOTAL BILIRUBIN: 0.2 mg/dL
  TOTAL PROTEIN: 5.73 G/DL
  URIC ACID: 1.6 mg/dL

Source: ChEMBL document CHEMBL3885881, “DrugMatrix”
